ChEMBL document CHEMBL5154647, “Discovery of seneciobipyrrolidine derivatives for the amelioration of glucose homeostasis disorders through 4E-BP1/Akt/AMPK signaling activation” (Eur J Med Chem, 2022)

Key:
L6 [1] = experiment: Induction of glucose uptake in rat L6 myoblasts at 20 uM measured after 2 hrs by liquid scintillation counter; type: functional
L6 [2] = experiment: Induction of glucose uptake in rat L6 myoblasts assessed as 2-DG concentration at 25 uM preincubated for 3 hrs and in presence of 2-deoxyglucose measured after 1 hrs by DNTB reagent based colorimetric assay; type: functional; details: time 4 hrs
L6 [3] = experiment: Induction of glucose uptake in rat L6 myoblasts at 3 uM measured after 2 hrs by liquid scintillation counter; type: functional
L6 [4] = experiment: Induction of glucose uptake in rat L6 myoblasts preincubated for 3 hrs with compound and in presence of 2-deoxyglucose measured after 1 hrs by DNTB reagent based colorimetric assay; type: functional, cell-based
[5] = Half life in Sprague-Dawley rat at 20 mg/kg, po measured upto 10 hrs by LC/MS/MS analysis; type: ADME, organism-based; details: in vivo
[6] = Cmax in Sprague-Dawley rat at 5 mg/kg, iv measured upto 24 hrs by LC/MS/MS analysis; type: ADME, organism-based; parameters: dose 5 mg/kg, time < 24 hrs, route iv; details: in vivo
[7] = Oral bioavailability in Sprague-Dawley rat at 20 mg/kg measured upto 10 hrs by LC/MS/MS analysis; type: ADME, organism-based; details: in vivo
[8] = Tmax in Sprague-Dawley rat at 20 mg/kg, po measured upto 10 hrs by LC/MS/MS analysis; type: ADME, organism-based; details: in vivo
[9] = Cmax in Sprague-Dawley rat at 20 mg/kg, po measured upto 10 hrs by LC/MS/MS analysis; type: ADME, organism-based; parameters: time < 10 hrs, dose 20 mg/kg, route po; details: in vivo
[10] = AUC (0 to t) in Sprague-Dawley rat at 5 mg/kg, iv measured upto 24 hrs by LC/MS/MS analysis; type: ADME, organism-based; parameters: dose 5 mg/kg, time < 24 hrs, route iv; details: in vivo
[11] = AUC (0 to t) in Sprague-Dawley rat at 20 mg/kg, po measured upto 10 hrs by LC/MS/MS analysis; type: ADME, organism-based; parameters: time < 10 hrs, dose 20 mg/kg, route po; details: in vivo
[12] = Half life in Sprague-Dawley rat at 5 mg/kg, iv measured upto 24 hrs by LC/MS/MS analysis; type: ADME, organism-based; details: in vivo

Structure (SMILES)	Activity (L6 [1]) [%]	Activity (L6 [2]) [pmol/µL]	also measured
COc1ccc2c(c1)[C@H]1[C@H](CCN1C(=O)Cc1ccc(C)cc1)[C@H]1CCCN21 (racemic)	101.2		
COc1ccc2c(c1)[C@H]1[C@H](CCN1C(=O)c1ccc(C#N)cc1)[C@H]1CCCN21 (racemic)	71.4	5.5	
Fc1ccc(N2CC[C@@H]3[C@@H]4CCCN4c4ccc(F)cc4[C@@H]32)cc1 (racemic)	58.3		
COc1ccc2c(c1)[C@H]1[C@H](CCN1C(=O)c1ccc(O)cc1)[C@H]1CCCN21 (racemic)	86.7		
COc1ccc(N2CC[C@@H]3[C@H]4CCCN4c4ccc(OC)cc4[C@@H]32)cc1 (racemic)	142.6		
COc1cc(C[C@H]2C(=O)OC[C@@H]2Cc2ccc(OC)c(OC)c2)ccc1O [ARCTIGENIN]		23.5	Activity (L6 [3]): 146%
COc1cccc(N2CC[C@@H]3[C@H]4CCCN4c4cc(OC)ccc4[C@@H]32)c1 (racemic)	22.4		
COc1ccc2c(c1)[C@H]1[C@H](CCN1CCc1ccccc1)[C@H]1CCCN21 (racemic)	55.9	23.4	
Cc1cccc(N2CC[C@@H]3[C@H]4CCCN4c4cc(C)ccc4[C@@H]32)c1 (racemic)	76.4		
COc1ccc2c(c1)[C@H]1[C@H](CCN1C(=O)c1ccc3ccccc3c1)[C@H]1CCCN21 (racemic)	172.4	52.9	EC50 (L6 [4]): 34.5 µM
COc1ccc2c(c1)[C@H]1[C@H](CCN1Cc1ccc3c(ccn3C)c1)[C@H]1CCCN21 (racemic)	68.7	23.4	half-life [5]: 11.9 h; Cmax [6]: 0.981 µg/mL; bioavailability [7]: 9.5%; Tmax [8]: 0.4 h; Cmax [9]: 0.307 µg/mL; AUC(0-t) at 24 h [10]: 1.48 µg·h/mL; AUC(0-t) at 10 h [11]: 0.561 µg·h/mL; half-life [12]: 7.6 h
COc1ccc(CN2CC[C@@H]3[C@H]4CCCN4c4ccc(OC)cc4[C@@H]32)cc1 (racemic)	15		
COc1ccc2c(c1)[C@H]1[C@H](CCN1CCc1ccc(C)cc1)[C@H]1CCCN21 (racemic)	86.3		
